The structures appear in SMILES notation. Some results are limits rather than exact numbers.

In the assay the target is T1, mutant CFTR (Homo sapiens, UniProt P13569, DEL508-508).
T1 construct: expressed in transfected cells
Briefly: Fluorescence (HS-YFP) assay for CFTR activity, corrector assay. The class given is cell-based. The following applies: CFBE41o- and FRT cells with stable expression of mutant CFTR, 24 h compound treatment. The method, then:
Fluorescence Assay for CFTR Activity
Mutant CFTR activity was determined with the functional assay based on the halide-sensitive yellow fluorescent protein, HS-YFP (Galietta et al., FEBS Lett 499: 220-224, 2001). CFBE41o- and FRT cells with stable expression of mutant CFTR and HS-YFP were plated on clear-bottom 96-well black microplates (Code 3603, Corning Life Sciences) at a density of 50,000 cells/well and kept at 37° C. in 5% CO2 for 24 hours. For the corrector assay, cells were treated for further 24 hours with test compounds, vehicle (DMSO), or the positive control VX-809. After treatment, the culture medium was removed and cells in each well were stimulated for 30 min at 37° C. with 60 μL PBS (containing 137 mM NaCl, 2.7 mM KCl, 8.1 mM Na2HPO4, 1.5 mM KH2PO4, 1 mM CaCl2, and 0.5 mM MgCl2) plus forskolin (20 μM) and genistein (50 μM).
For determination of potentiator activity on G551D-CFTR or G1349D-CFTR, cells were directly stimulated with forskolin plus test compound without previous incubation at low temperature. At the time of assay, microplates carrying CFBE41o- or FRT cells were transferred to microplate readers (BMG Labtech) equipped with high-quality excitation (HQ500/20X: 500±10 nm) and emission (HQ535/30M: 535±15 nm) filters for YFP (Chroma Technology). The assay consisted of a continuous 14 s fluorescence reading with 2 s before and 12 s after injection of an iodide-containing solution (165 μL of a modified PBS containing I^− instead of Cl^−; final I^− concentration in the well: 100 mM). Data were normalized to the initial background-subtracted fluorescence. Enhanced CFTR activity, induced by correctors and/or potentiators, results in accelerated I^− influx that in turn causes faster HS-YFP quenching (Pedemonte et al., Mol Pharmacol 68:1736-1746, 2005; Pedemonte et al., J Clin Invest 115:2564-2571, […]). To determine fluorescence quenching rate associated with I^− influx, the […] 10 s of data for each well were fitted with an exponential function to extrapolate initial slope (dF/dt).
EC50 obtained are illustrated in table 1 wherein +: EC50>2 μM; ++: 1.0 μM<EC50<2 μM; +++: EC50<1 μM.

T1 sequence (P13569 with tags, fused parts or gaps DEL508-508): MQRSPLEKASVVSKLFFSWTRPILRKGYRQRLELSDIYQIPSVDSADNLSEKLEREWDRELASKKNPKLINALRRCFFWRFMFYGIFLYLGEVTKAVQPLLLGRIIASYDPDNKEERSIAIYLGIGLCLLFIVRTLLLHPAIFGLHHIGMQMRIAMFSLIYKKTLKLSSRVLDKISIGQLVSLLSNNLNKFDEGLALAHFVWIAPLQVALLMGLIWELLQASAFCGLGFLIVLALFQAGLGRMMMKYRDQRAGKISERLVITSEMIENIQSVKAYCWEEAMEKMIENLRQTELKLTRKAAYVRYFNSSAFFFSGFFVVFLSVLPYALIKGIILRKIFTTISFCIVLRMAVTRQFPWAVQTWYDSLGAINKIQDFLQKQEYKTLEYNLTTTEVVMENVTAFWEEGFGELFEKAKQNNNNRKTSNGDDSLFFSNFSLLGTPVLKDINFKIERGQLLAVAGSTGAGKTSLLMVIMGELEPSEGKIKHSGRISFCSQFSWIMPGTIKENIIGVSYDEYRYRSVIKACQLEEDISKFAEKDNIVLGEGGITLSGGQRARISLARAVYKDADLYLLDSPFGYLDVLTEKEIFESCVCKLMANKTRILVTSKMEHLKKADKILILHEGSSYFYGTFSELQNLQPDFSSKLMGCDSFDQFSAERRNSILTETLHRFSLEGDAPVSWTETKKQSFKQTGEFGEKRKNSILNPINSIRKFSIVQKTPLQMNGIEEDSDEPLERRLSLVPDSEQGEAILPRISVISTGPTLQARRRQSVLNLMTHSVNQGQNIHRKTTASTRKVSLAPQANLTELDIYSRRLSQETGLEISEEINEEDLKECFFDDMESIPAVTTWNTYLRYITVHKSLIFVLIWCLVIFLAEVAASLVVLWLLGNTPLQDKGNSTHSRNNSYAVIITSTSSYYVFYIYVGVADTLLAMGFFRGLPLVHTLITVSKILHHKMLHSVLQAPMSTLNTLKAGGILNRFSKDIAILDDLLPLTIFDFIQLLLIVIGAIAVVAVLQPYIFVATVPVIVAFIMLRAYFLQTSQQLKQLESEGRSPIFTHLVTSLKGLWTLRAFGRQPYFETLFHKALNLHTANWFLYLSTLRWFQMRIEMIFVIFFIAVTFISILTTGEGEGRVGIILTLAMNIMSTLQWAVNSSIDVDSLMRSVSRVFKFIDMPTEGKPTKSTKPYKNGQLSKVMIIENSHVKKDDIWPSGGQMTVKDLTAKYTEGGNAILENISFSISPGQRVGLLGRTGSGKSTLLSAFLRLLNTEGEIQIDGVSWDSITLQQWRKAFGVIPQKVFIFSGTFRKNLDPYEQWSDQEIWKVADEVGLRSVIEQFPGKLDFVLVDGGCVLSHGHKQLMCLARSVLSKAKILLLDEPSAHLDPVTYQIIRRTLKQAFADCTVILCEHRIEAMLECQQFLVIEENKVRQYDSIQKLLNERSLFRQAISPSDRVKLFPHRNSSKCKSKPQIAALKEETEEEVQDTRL

With `CCOC(=O)c1c(C)nn(-c2cccc(C(=O)N(C)c3ccc4c(c3)OCO4)c2)c1C` [compound 043, Ethyl 1-[3-[1,3-benzodioxol-5-yl(methyl)carbamoyl]phenyl]-3,5-dimethyl-pyrazole-4-carboxylate], the EC50 – broadly, the midpoint of the concentration-response curve – was above 2000 nM. For `Cc1nn(-c2cccc(C(=O)N(C)c3ccc4c(c3)CCCC4)c2)c(C)c1Cl` [compound 044], the concentration for a half-maximal effect (EC50) is above 2000 nM.

On to `Cc1nc2ccc(N(C)C(=O)c3cccc(-n4nc(C)c(Cl)c4C)c3)cc2o1` [compound 047, 3-(4-Chloro-3,5-dimethyl-pyrazol-1-yl)-N-methyl-N-(2-methyl-1,3-benzoxazol-6-yl)benzamide], for which the concentration for a half-maximal effect (EC50) is below 1000 nM. Consider `Cc1nn(-c2cccc(C(=O)N(C)c3ccc4c(c3)OCO4)c2)c(C)c1C(=O)O` [compound 048, 1-[3-[1,3-Benzodioxol-5-yl(methyl)carbamoyl]phenyl]-3,5-dimethyl-pyrazole-4-carboxylic acid], for which the EC50 was above 2000 nM.

Turning to `Cc1nn(-c2cccc(C(=O)N(C)c3cc4c(cc3Cl)OC(F)(F)O4)c2)c(C)c1Cl` [compound 049, N-(6-Chloro-2,2-difluoro-1,3-benzodioxol-5-yl)-3-(4-chloro-3,5-dimethyl-pyrazol-1-yl)-N-methyl-benzamide], the half-maximal effective concentration (EC50) was below 1000 nM. Take `Cc1nn(-c2cccc(C(=O)N(C)c3ccc4c(c3)OCO4)n2)c(C)c1Cl` [compound 050, N-(1,3-Benzodioxol-5-yl)-6-(4-chloro-3,5-dimethyl-pyrazol-1-yl)-N-methyl-pyridine-2-carboxamide]: the concentration giving a half-maximal response (EC50) is above 2000 nM. Then `Cc1nn(-c2cccc(C(=O)Nc3ccc4oc(C(F)(F)F)nc4c3)c2)c(C)c1Cl` [compound 054, 3-(4-Chloro-3,5-dimethyl-pyrazol-1-yl)-N-[2-(trifluoromethyl)-1,3-benzoxazol-5-yl]benzamide], with 1000 to 2000 nM; and `Cc1nn(-c2cccc(C(=O)N(C)c3ccc4oc(C5CC5)nc4c3)c2)c(C)c1Cl` [compound 055, 3-(4-Chloro-3,5-dimethyl-pyrazol-1-yl)-N-(2-cyclopropyl-1,3-benzoxazol-5-yl)-N-methyl-benzamide], with 1000 to 2000 nM; and `Cc1nn(-c2cccc(C(=O)N(C)c3ccc4c(c3)OCO4)c2)c(C)c1C(N)=O` [compound 056, 1-[3-[1,3-Benzodioxol-5-yl(methyl)carbamoyl]phenyl]-3,5-dimethyl-pyrazole-4-carboxamide], with above 2000 nM.

In the case of `Cc1nn(-c2cccc(C(=O)N(C)c3ccc4c(c3)COC4)c2)c(C)c1Cl` [compound 057], the 50% effective concentration (EC50) was 1000 to 2000 nM. Take `Cc1nn(-c2cccc(C(=O)N(C)c3ccc4c(c3)CCO4)c2)c(C)c1Cl` [compound 058]: the EC50 was below 1000 nM.

Turning to `Cc1nn(-c2cccc(C(=O)N(C)c3ccc4c(c3)OCO4)c2)c(C)c1C(=O)NCCO` [compound 059, 1-[3-[1,3-Benzodioxol-5-yl(methyl)carbamoyl]phenyl]-N-(2-hydroxyethyl)-3,5-dimethyl-pyrazole-4-carboxamide], the EC50 was above 2000 nM. For `Cc1nn(-c2cccc(C(=O)N(C)c3ccc4oc(C(C)C)nc4c3)c2)c(C)c1Cl` [compound 062, 3-(4-Chloro-3,5-dimethyl-pyrazol-1-yl)-N-(2-isopropyl-1,3-benzoxazol-5-yl)-N-methyl-benzamide], the 50% effective concentration (EC50) was above 2000 nM.

Regarding `COc1nc2cc(N(C)C(=O)c3cccc(-n4nc(C)c(Cl)c4C)c3)ccc2o1` [compound 064, 3-(4-Chloro-3,5-dimethyl-pyrazol-1-yl)-N-(2-methoxy-1,3-benzoxazol-5-yl)-N-methyl-benzamide], the EC50 is above 2000 nM. As for `Cc1cc(C(=O)O)n(-c2cccc(C(=O)N(C)c3ccc4c(c3)OCO4)c2)n1` [compound 065, 2-[3-[1,3-benzodioxol-5-yl(methyl)carbamoyl]phenyl]-5-methyl-pyrazole-3-carboxylic acid], the EC50 is above 2000 nM. Consider `Cc1cc(C(=O)O)nn1-c1cccc(C(=O)N(C)c2ccc3c(c2)OCO3)c1` [compound 066, 1-[3-[1,3-Benzodioxol-5-yl(methyl)carbamoyl]phenyl]-5-methyl-pyrazole-3-carboxylic acid], for which the EC50 was above 2000 nM. The result for `CCOC(=O)c1nn(-c2cccc(C(=O)N(C)c3ccc4c(c3)OCO4)c2)c(C)c1Cl` [compound 067, Ethyl 1-[3-[1,3-benzodioxol-5-yl(methyl)carbamoyl]phenyl]-4-chloro-5-methyl-pyrazole-3-carboxylate] reads above 2000 nM; that for `COc1cccc(N(C)C(=O)c2cccc(-n3nc(C)c(Cl)c3C)c2)c1` [compound 068, 3-(4-Chloro-3,5-dimethyl-pyrazol-1-yl)-N-(3-methoxyphenyl)-N-methyl-benzamide], below 1000 nM; that for `Cc1c(Cl)c(C(=O)O)nn1-c1cccc(C(=O)N(C)c2ccc3c(c2)OCO3)c1` [compound 069, 1-[3-[1,3-Benzodioxol-5-yl(methyl)carbamoyl]phenyl]-4-chloro-5-methyl-pyrazole-3-carboxylic acid], above 2000 nM.

For `Cc1cc(CO)n(-c2cccc(C(=O)N(C)c3ccc4c(c3)OCO4)c2)n1` [compound 070, N-(1,3-Benzodioxol-5-yl)-3-[5-(hydroxymethyl)-3-methyl-pyrazol-1-yl]-N-methyl-benzamide], the EC50 is above 2000 nM. For the molecule `Cc1nn(-c2cc(C(=O)N(C)c3ccc4c(c3)OCO4)ccc2C(F)(F)F)c(C)c1Cl` [compound 071, N-(1,3-Benzodioxol-5-yl)-3-(4-chloro-3,5-dimethyl-pyrazol-1-yl)-N-methyl-4-(trifluoromethyl)benzamide], the EC50 was above 2000 nM.

On to `Cc1nn(-c2nccc(C(=O)N(C)c3ccc4c(c3)OCO4)n2)c(C)c1Cl` [compound 072, N-(1,3-Benzodioxol-5-yl)-2-(4-chloro-3,5-dimethyl-pyrazol-1-yl)-N-methyl-pyrimidine-4-carboxamide], for which the concentration for a half-maximal effect (EC50) is above 2000 nM. With `Cc1c(Cl)c(CO)nn1-c1cccc(C(=O)N(C)c2ccc3c(c2)OCO3)c1` [compound 073, N-(1,3-Benzodioxol-5-yl)-3-[4-chloro-3-(hydroxylmethyl)-5-methyl-pyrazol-1-yl]-N-methyl-benzamide], the EC50 was above 2000 nM. The result for `Cc1c(Cl)c(C(N)=O)nn1-c1cccc(C(=O)N(C)c2ccc3c(c2)OCO3)c1` [compound 074, 1-[3-[1,3-Benzodioxol-5-yl(methyl)carbamoyl]phenyl]-4-chloro-5-methyl-pyrazole-3-carboxamide] reads above 2000 nM; that for `CCc1nc2ccc(N(C)C(=O)c3cccc(-n4nc(C)c(Cl)c4C)c3)cc2o1` [compound 076, 3-(4-Chloro-3,5-dimethyl-pyrazol-1-yl)-N-(2-ethyl-1,3-benzoxazol-6-yl)-N-methyl-benzamide], below 1000 nM. Regarding `Cc1cn2cc(N(C)C(=O)c3cccc(-n4nc(C)c(Cl)c4C)c3)ccc2n1` [compound 077, 3-(4-Chloro-3,5-dimethyl-pyrazol-1-yl)-N-methyl-N-(2-methylimidazo[1,2-a]pyridin-6-yl)benzamide], the EC50 was below 1000 nM. `Cc1nn(-c2cccc(C(=O)N(C)c3ccc4oc(C(F)(F)F)nc4c3)c2)c(C)c1Cl` [compound 078, 3-(4-Chloro-3,5-dimethyl-pyrazol-1-yl)-N-methyl-N-[2-(trifluoromethyl)-1,3-benzoxazol-5-yl]benzamide]: the EC50 was above 2000 nM.

As for `Cc1nc2ccc(N(C)C(=O)c3cccc(-n4nc(C)c(Cl)c4C)c3)cn2n1` [compound 079, 3-(4-Chloro-3,5-dimethyl-pyrazol-1-yl)-N-methyl-N-(2-methyl-[1,2,4]triazolo[1,5-a]pyridin-6-yl)benzamide], the concentration giving a half-maximal response (EC50) was above 2000 nM.

As for `Cc1nn(-c2cccc(C(=O)N(C)c3ccc4c(c3)OCO4)c2)c(C)c1C#N` [compound 081, N-(1,3-Benzodioxol-5-yl)-3-(4-cyano-3,5-dimethyl-pyrazol-1-yl)-N-methyl-benzamide], the concentration for a half-maximal effect (EC50) was above 2000 nM. In the case of `Cc1ccc(C(=O)N(C)c2ccc3c(c2)OCO3)cc1-n1nc(C)c(Cl)c1C` [compound 082, N-(1,3-Benzodioxol-5-yl)-3-(4-chloro-3,5-dimethyl-pyrazol-1-yl)-N,4-dimethyl-benzamide], the EC50 was 1000 to 2000 nM. On to `Cc1nn(-c2cccc(C(=O)N(C)c3ccc4c(c3)OCO4)c2)c(C(=O)O)c1Cl` [compound 083, 2-[3-[1,3-Benzodioxol-5-yl(methyl)carbamoyl]phenyl]-4-chloro-5-methyl-pyrazole-3-carboxylic acid], for which the EC50 is above 2000 nM. `Cc1nn(-c2cccc(C(=O)N(C)c3ccc4c(c3)OCO4)c2)c(C(N)=O)c1Cl` [compound 084, 2-[3-[1,3-benzodioxol-5-yl(methyl)carbamoyl]phenyl]-4-chloro-5-methyl-pyrazole-3-carboxamide]: the EC50 was above 2000 nM.

The values above are taken from patent publication US12492193B2, “Pyrazole derivatives for the treatment of cystic fibrosis” (Fondazione Istituto Italiano Di Tecnologia, priority 2017, dated 2025).
